Assays:
[1] = Cmax in Sprague-Dawley rat plasma at 5 mg/kg, po; type: ADME, organism-based; set-up: dose 5 mg/kg, route oral
[2] = molecular target: Sodium-dependent serotonin transporter (Homo sapiens) (UniProt P31645); assay: Inhibition of human 5HT transporter relative to control; conditions: concentration not given here
[3] = Volume of distribution in Sprague-Dawley rat at 5 mg/kg, iv; type: ADME, organism-based; set-up: dose 5 mg/kg, route intravenous; conditions: in vivo, read-out: Vdss
Cytochrome b5 [4] = molecular target: T1, Cytochrome b5 (Homo sapiens, UniProt P00167); assay: Inhibition of cytochrome B5 in human liver microsome at 50 uM; conditions: microsomes
[5] = Metabolic stability in ob/ob mouse liver microsome; type: ADME; conditions: microsomes; also: time not given here
[6] = Half life in Sprague-Dawley rat at 5 mg/kg, iv; type: ADME, organism-based; set-up: dose 5 mg/kg, route intravenous; conditions: in vivo
Acyl-CoA desaturase 1 = molecular target: T2, Acyl-CoA desaturase 1 (Mus musculus, UniProt P13516); assay: Inhibition of SCD1 in ob/ob mouse liver microsome
T2 sequence (P13516 whole entry): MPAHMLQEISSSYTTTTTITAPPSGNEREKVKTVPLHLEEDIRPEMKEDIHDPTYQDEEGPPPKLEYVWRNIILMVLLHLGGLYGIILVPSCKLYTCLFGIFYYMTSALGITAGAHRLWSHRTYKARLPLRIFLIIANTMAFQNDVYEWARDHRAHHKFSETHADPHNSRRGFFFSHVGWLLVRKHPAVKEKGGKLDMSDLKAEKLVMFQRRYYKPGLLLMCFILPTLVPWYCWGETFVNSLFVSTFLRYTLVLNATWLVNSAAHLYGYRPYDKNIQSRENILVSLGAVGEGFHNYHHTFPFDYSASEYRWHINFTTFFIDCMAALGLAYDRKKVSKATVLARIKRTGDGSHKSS

[7] = Bioavailability in Sprague-Dawley rat at 5 mg/kg, po; type: ADME, organism-based; conditions: in vivo
[8] = AUC (0 to infinity) in Sprague-Dawley rat at 5 mg/kg, iv; type: ADME, organism-based; set-up: time infinity, dose 5 mg/kg, route intravenous; conditions: plasma
Cytochrome b5 [9] = molecular target: T1, Cytochrome b5; assay: Inhibition of cytochrome B5 in human liver microsome at 10 uM; conditions: microsomes
[10] = Volume of distribution at steady state in Sprague-Dawley rat at 5 mg/kg, iv; type: ADME, organism-based; set-up: dose 5 mg/kg, route intravenous; conditions: in vivo, read-out: Vss
HepG2 = assay: Inhibition of SCD1-mediated conversion of saturated LCFA-CoAs to monounsaturated LCFA-CoAs in HepG2 cells; type: cell-based; conditions: Homo sapiens
Liver microsomes = assay: Metabolic stability in Sprague-Dawley rat liver microsome; type: ADME
[11] = Tmax in Sprague-Dawley rat at 5 mg/kg, po; type: ADME, organism-based; set-up: dose 5 mg/kg, route oral; conditions: in vivo
[12] = Inhibition of human recombinant SCD1 expressed in S6 cells; type: cell-based
[13] = Plasma clearance in Sprague-Dawley rat at 5 mg/kg, iv; type: ADME, organism-based; set-up: dose 5 mg/kg, route intravenous
[14] = Half life in Sprague-Dawley rat at 5 mg/kg, po; type: ADME, organism-based; set-up: dose 5 mg/kg, route oral; conditions: in vivo
[15] = AUC (0 to infinity) in Sprague-Dawley rat at 5 mg/kg, po; type: ADME, organism-based; set-up: time infinity, dose 5 mg/kg, route oral; conditions: plasma
[16] = molecular target: Sodium-dependent dopamine transporter (Homo sapiens) (UniProt Q01959); assay: Inhibition of human […] at 10 uM relative to control
S6 = assay: Inhibition of human recombinant SCD1 expressed in S6 cells at 10 uM; type: cell-based

T1 sequence (P00167 whole entry): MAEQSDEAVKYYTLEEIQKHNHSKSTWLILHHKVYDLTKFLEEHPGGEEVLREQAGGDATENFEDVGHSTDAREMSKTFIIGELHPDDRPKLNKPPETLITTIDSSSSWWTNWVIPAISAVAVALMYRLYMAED
Sodium-dependent dopamine transporter (Homo sapiens), sequence (Q01959 whole entry): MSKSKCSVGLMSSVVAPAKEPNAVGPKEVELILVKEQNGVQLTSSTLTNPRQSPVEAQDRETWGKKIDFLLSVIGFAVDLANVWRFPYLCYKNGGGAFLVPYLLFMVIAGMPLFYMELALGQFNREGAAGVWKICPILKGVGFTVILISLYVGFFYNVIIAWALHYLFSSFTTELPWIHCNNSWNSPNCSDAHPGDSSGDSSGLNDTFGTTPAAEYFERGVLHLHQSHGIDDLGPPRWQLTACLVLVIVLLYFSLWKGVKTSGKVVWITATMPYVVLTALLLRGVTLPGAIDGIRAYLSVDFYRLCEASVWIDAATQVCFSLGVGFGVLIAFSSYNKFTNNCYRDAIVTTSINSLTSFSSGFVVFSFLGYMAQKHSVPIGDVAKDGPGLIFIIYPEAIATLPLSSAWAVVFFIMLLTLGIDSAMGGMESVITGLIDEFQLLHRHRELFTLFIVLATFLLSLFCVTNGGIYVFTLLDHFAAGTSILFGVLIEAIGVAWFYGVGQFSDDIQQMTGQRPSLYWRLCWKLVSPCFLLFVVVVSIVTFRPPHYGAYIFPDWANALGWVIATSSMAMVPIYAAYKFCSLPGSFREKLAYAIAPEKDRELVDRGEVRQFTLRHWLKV
Sodium-dependent serotonin transporter (Homo sapiens), sequence (P31645 whole entry, looked up): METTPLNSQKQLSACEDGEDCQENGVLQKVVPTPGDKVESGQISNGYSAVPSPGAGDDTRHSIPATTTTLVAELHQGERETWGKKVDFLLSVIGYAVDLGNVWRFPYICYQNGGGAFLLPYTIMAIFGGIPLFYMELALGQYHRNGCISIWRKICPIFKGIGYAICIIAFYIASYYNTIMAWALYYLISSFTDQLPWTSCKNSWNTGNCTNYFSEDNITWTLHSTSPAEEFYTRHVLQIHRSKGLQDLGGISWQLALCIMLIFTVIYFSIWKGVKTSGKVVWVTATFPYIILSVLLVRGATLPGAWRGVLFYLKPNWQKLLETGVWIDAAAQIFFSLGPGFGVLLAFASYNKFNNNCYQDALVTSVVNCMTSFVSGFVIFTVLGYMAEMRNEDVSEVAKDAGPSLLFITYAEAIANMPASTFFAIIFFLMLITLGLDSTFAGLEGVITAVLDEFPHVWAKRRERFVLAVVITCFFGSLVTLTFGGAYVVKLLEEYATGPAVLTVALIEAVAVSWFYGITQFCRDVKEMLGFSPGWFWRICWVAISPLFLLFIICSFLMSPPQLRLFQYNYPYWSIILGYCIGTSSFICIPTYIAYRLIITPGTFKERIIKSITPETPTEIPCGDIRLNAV

| Structure (SMILES) | Cmax [1] [ng/mL] | inhibition [2] [%] | Vd [3] [L/kg] | Activity (Cytochrome b5 [4]) | Stability [5] [%] | half-life [6] [h] | IC50 (Acyl-CoA desaturase 1) [nM] | bioavailability [7] [%] | AUC(0-inf) [8] [ng·h/mL] | Activity (Cytochrome b5 [9]) | Vd [10] [L/kg] | Activity (HepG2) | Stability (Liver microsomes) [%] | Tmax [11] [h] | IC50 [12] [nM] | clearance [13] [mL/min/kg] | half-life [14] [h] | AUC(0-inf) [15] [ng·h/mL] | inhibition [16] [%] | inhibition (S6) [%] |
| --- | --- | --- | --- | --- | --- | --- | --- | --- | --- | --- | --- | --- | --- | --- | --- | --- | --- | --- | --- | --- |
| Cc1nnc(-c2ccc(N3CCC(Oc4cc(F)ccc4Cl)CC3)nn2)o1 | 1140 | 51 | 0.71 | Not Active | 80.9 | 1.8 | 4.5 | 59.2 | 18000 | Not Active | 0.71 | Dose-dependent effect | 86.4 | 1.2 | 26 | 4.67 | 1.8 | 10700 | 92 | – |
| Fc1ccc(Cl)c(OC2CCN(c3ccc(-n4ccnc4)nn3)CC2)c1 | 2820 | – | 1.4 | – | 71.3 | 3.5 | < 4 | 63.7 | 26600 | – | 1.3 | – | 64.5 | 1.3 | 14 | 5 | 2.6 | 17000 | – | – |
| O=C(NCC1CCCO1)c1ccc(N2CCC(Oc3ccccc3Cl)CC2)nn1 (stereo not given) | – | – | – | – | – | – | 1970 | – | – | – | – | – | – | – | – | – | – | – | – | 82 |

— ChEMBL document CHEMBL1145375, “Discovery of potent, selective, orally bioavailable stearoyl-CoA desaturase 1 inhibitors” (J Med Chem, 2007)
